The values below come from patent publication US20190134047A1, “A MIXTURE OF D-SERINE AND CAFFEINE FOR OBTAINING THE EFFECT OF PREVENTING THE DECLINE OF LEARNING ABILITY OR MEMORY CAUSED BY STRESS AND ENHANCING LEARNING ABILITY OR MEMORY, AND A FUNCTIONAL FOOD COMPOSITION CONTAINING THE SAME” (ADVANCED NT, priority 2016, published 2019).

This test deals with C57BL/6 male mouse. The test is described as follows: Novel object recognition test with restraint stress. The format is in vivo. The settings on record: for preference for objects A and B on the fourth day (training day): abdominal injection 30 min before; for preference for objects A and B on the fourth day (training day) / preference for new object C on the fifth day after 24 hours: + restraint stress, mean±standard error; for preference for new object C on the fifth day after 24 hours: abdominal injection. Here is the method:
In all experiments, C57BL/6 male mouse, a kind of B6 mouse of 8-12 weeks old, were used. The experimental groups were divided into 7 experimental groups according to whether they were stressed or not and the type and weight of injected drugs as follows. […] Immediately after each behavioral experiment, restraint stress was applied by placing the mouse in a 50 mL tube pre-pierced with about 9 pores for 90 minutes. A mouse was placed in an open-field box (40 cm×40 cm×40 cm) made of acryl for 15 minutes every day for 3 days to fit and stabilize to the box. On the training day of the fourth day, two different objects made of acryl (objects A and B) were placed at regular intervals in the box and the mice were trained to freely search objects A and B for 10 minutes. […] The search time for each object (A and C or B and C) was quantified and the preference for the object was expressed as a ratio of search time (Preference (%)=C/(A+C)*100). […] To compare the results of the said two behavioral experiments, SPSS 21.0 (SPSS Inc, Chicago, Ill.) and Student's T-test and one-way ANOVA were used for statistical analysis.

Setting [1] is: D-serine 500 mg (second weight).

`Cn1c(=O)c2c(ncn2C)n(C)c1=O` [caffeine]: under “Caffeine 10 mg”, the “preference for objects A and B on the fourth day (training day)” value (“preference for objects A and B” for short) stood at 49.92±2.75%; the “preference for new object C on the fifth day after 24 hours” value (“preference … after 24 hours” for short) is reported as 62.06±2.27%.

In the case of `N[C@H](CO)C(=O)O` [D-serine], the “preference for new object C, comparison among drug groups” value (D-Serine 50 mg + restraint stress as printed, 24-hour results, one-way ANOVA) was “highest preference”. Moreover, for the setting “D-serine 50 mg (first weight)”, the “preference for objects A and B” value came to 52.12±2.81%; the “preference … after 24 hours” value is 63.63±3.94%. For the same compound, under setting [1], the “preference for objects A and B” value was determined as 47.83±3.97%; the “preference … after 24 hours” value stood at 67.55±3.46%.
